The record followed here is patent publication US20140288071A1, “INHIBITORS OF NOTUM […] AND METHODS OF THEIR USE” (priority 2011, published 2014).

Experiment [1] has as its target T1, human notum pectinacetyltransferase (Homo sapiens, UniProt Q6P988).
T1 construct: made in house; conditioned medium used
T1 sequence (Q6P988 20-496): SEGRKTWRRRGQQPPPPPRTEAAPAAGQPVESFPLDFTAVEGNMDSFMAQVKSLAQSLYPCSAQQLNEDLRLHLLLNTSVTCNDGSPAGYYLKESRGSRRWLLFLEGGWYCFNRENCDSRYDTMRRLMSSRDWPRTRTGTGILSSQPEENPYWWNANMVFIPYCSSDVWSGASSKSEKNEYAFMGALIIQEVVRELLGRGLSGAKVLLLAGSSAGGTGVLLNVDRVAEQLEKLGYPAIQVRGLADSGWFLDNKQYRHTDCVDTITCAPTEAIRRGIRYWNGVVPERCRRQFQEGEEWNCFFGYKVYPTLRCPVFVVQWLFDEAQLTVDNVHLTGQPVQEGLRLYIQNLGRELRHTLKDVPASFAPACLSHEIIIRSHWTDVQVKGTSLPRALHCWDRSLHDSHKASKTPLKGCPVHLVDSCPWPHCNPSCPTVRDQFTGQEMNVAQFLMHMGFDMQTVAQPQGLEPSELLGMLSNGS
Description: Binding assay (OPTS esterase substrate, fluorimetric). The experiment is classed as biochemical. To be noted: OPTS substrate 5 μM. How it is done: Plasmid containing human notum pectinacetyltransferase in pcDNA3.1(+) vector was transfected into HEK293 cells and clones were selecting by growing in presence of 400 ug/mL of G418. Condition media from these cells was used for the assay.

For experiment [2], the target named is T1, human notum pectinacetyltransferase. Description: Reporter assay (CellSensor LEF/TCF-bla FreeStyle 293F cells, Wnt3a and notum conditioned media). The experiment is classed as cell-based. On the procedure: Plasmid containing human notum pectinacetyltransferase in pcDNA3.1(+) vector was transfected into HEK293 cells and clones were selecting by growing in presence of 400 ug/mL of G418. […] L cells overexpressing and secreting Wnt3a into the conditioned media were purchased from ATCC.
The assay protocol was as follows. […] The cell growth medium consisted of DMEM with 10% Dialyzed FBS, 5 μg/ml Blasticidin (Invitrogen, R210-01), 0.1 mM NEAA, 25 mM HEPES and 1×GPS. Cells were then trypsinized by first rinsing with PBS, followed by addition of 5 mL of trypsin and incubation of plates at room temperature for two minutes. A total of 10 mL of assay media (Opti-MEM, plus 0.5% dialyzed FBS, 0.1 mM NEAA, 1 mM sodium pyruvate, 10 mM HEPES, 1×GPS) was then added per 15 cm plate. Cells were counted and suspended at 0.75 million cells per mL. […] After incubation of cells at 37° C. for 3 hours, 10 μL of 30 mM LiCl in assay medium was added per well, followed by incubation at 37° C. for another 3 hours. […] Ten μL of the Wnt3a/notum pentinacetyltransferase mixture was then transferred from Greiner plates to each well of the 384-well plates containing the CellSensor cells. After incubation of cells overnight at 37° C., reactions were developed by addition of […] of 1×CCF4 (Invitrogen, Catalogue number K1085) to each well, covering the entire 384-well plate, and gentle rocking in the dark at room temperature for 3 hours.

pEC50, pIC50: −log10 of the molar value.

`Cc1sc2c(SCC(=O)O)ncnc2c1C1CC1` [2-((7-cyclopropyl-6-methylthieno[3,2-d]pyrimidin-4-yl)thio)acetic acid]: the pIC50 in experiment [1] is above 7.60. For the same compound, in experiment [2], the pEC50 is above 6.00.

As to `CCCOC(=O)CSc1ncnc2sc(C)c(C)c12` [propyl 2-((5,6-dimethylthieno[2,3-d]pyrimidin-4-yl)thio)acetate], the pIC50 in experiment [1] was above 7.60. The pEC50 in experiment [2] was above 6.00.

In turn, `Cc1sc2ncnc(SCC(=O)NCCC#N)c2c1Cl` [2-((5-chloro-6-methylthieno[2,3-d]pyrimidin-4-yl)thio)-N-(2-cyanoethyl)acetamide] showed a pIC50 in experiment [1] above 7.60. The compound also had a pEC50 in experiment [2] above 6.00.

In turn, `Cc1c(Cl)sc2c(SCC(=O)NCCC#N)ncnc12` [2-((6-chloro-7-methylthieno[3,2-d]pyrimidin-4-yl)thio)-N-(2-cyanoethyl)acetamide] had a pIC50 in experiment [1] above 7.60. Also, the pEC50 in experiment [2] is above 6.00.

As to `Cc1sc2ncnc(SCC(=O)OC(C)C)c2c1Cl` [isopropyl 2-((5-chloro-6-methylthieno[2,3-d]pyrimidin-4-yl)thio)acetate], the pIC50 in experiment [1] was above 7.60. In experiment [2], this compound had a pEC50 above 6.00.

In turn, `CCNC(=O)CSc1ncnc2c(C)c(Cl)sc12` [2-((6-chloro-7-methylthieno[3,2-d]pyrimidin-4-yl)thio)-N-ethylacetamide] gave a pIC50 in experiment [1] above 7.60. This compound also gave a pEC50 in experiment [2] above 6.00.

For `Cc1sc2ncnc(SCC(N)=O)c2c1C` [2-((5,6-dimethylthieno[2,3-d]pyrimidin-4-yl)thio)acetamide], in experiment [1], the pIC50 is above 7.60. This compound also had a pEC50 in experiment [2] above 6.00.

`O=C(O)CSc1ncnc2c(C3CC3)c(C(F)(F)F)sc12` [2-(7-cyclopropyl-6-(trifluoromethyl)thieno[3,2-d]pyrimidin-4-yl)thio)acetic acid]: the pIC50 in experiment [1] is above 7.60. In experiment [2], this compound gave a pEC50 above 6.00.

Turning to `Cc1sc2ncnc(SCC(=O)OC(C)C)c2c1C` [isopropyl 2-((5,6-dimethylthieno[2,3-d]pyrimidin-4-yl)thio)acetate], the pIC50 in experiment [1] is above 7.60. The same compound gave a pEC50 in experiment [2] above 6.00.

As to `COCCNC(=O)CSc1ncnc2c(C)c(Cl)sc12` [2-((6-chloro-7-methylthieno[3,2-d]pyrimidin-4-yl)thio)-N-(2-methoxyethyl)acetamide], the negative-log IC50 (pIC50) in experiment [1] is above 7.60. In experiment [2], the pEC50 is above 6.00.

`CON(C)C(=O)CSc1ncnc2sc(C)c(C)c12` [2-((5,6-dimethylthieno[2,3-d]pyrimidin-4-yl)thio)-N-methoxy-N-methylacetamide] had a pIC50 in experiment [1] above 7.60. This compound gave a pEC50 in experiment [2] above 6.00.

`Cc1csc2c(SCC(=O)O)ncnc12` [2-((7-methylthieno[3,2-d]pyrimidin-4-yl)thio)acetic acid] showed a pIC50 in experiment [1] above 6.60. In experiment [2], this compound gave a pEC50 above 4.82.

In the case of `Cc1sc2ncnc(SCC(=O)N3Cc4ccccc4C3)c2c1C` [2-((5,6-dimethylthieno[2,3-d]pyrimidin-4-yl)thio)-1-(isoindolin-2-yl)ethanone], the pIC50 in experiment [1] was above 7.60. In addition, the pEC50 in experiment [2] was above 5.00.

Turning to `Cc1cc(NC(=O)CSc2ncnc3sc(C)c(C)c23)no1` [2-((5,6-dimethylthieno[2,3-d]pyrimidin-4-yl)thio)-N-(5-methylisoxazol-3-yl)acetamide], the pIC50 in experiment [1] was above 7.60. For the same compound, the negative logarithm of the EC50 (pEC50) in experiment [2] is above 6.00.

`CCCc1sc2ncnc(SCC(=O)O)c2c1Cl` [2-((5-chloro-6-propylthieno[2,3-d]pyrimidin-4-yl)thio)acetic acid] showed a pIC50 in experiment [1] above 7.60. The compound also showed a pEC50 in experiment [2] above 6.00.

On to `Cc1sc2ncnc(SCC(=O)NCCc3cn[nH]c3)c2c1Cl` [N-(2-(1H-pyrazol-4-yl)ethyl)-2-((5-chloro-6-methylthieno[2,3-d]pyrimidin-4-yl)thio)acetamide], for which, in experiment [1], the pIC50 was above 7.30. In experiment [2], the pEC50 was above 6.00.

Consider `Cc1sc2ncnc(SCC(=O)O)c2c1Br` [2-((5-bromo-6-methylthieno[2,3-d]pyrimidin-4-yl)thio)acetic acid], for which the pIC50 in experiment [1] is above 7.60. Further, in experiment [2], the negative-log EC50 (pEC50) was above 6.00.

For `COC(=O)CSc1ncnc2c(C)c(Cl)sc12` [methyl 2-((6-chloro-7-methylthieno[3,2-d]pyrimidin-4-yl)thio)acetate], in experiment [1], the pIC50 was above 7.60. Moreover, the pEC50 in experiment [2] is above 6.00.

Regarding `CNC(=O)CSc1ncnc2sc(C)c(C)c12` [2-((5,6-dimethylthieno[2,3-d]pyrimidin-4-yl)thio)-N-methylacetamide], the negative-log IC50 (pIC50) in experiment [1] is above 7.60. Besides, in experiment [2], the pEC50 is above 6.00.

The compound `Cc1sc2ncnc(SCC(=O)N(C)C)c2c1Cl` [2-((5-chloro-6-methylthieno[2,3-d]pyrimidin-4-yl)thio)-N,N-dimethylacetamide] had a pIC50 in experiment [1] above 7.60. Besides, in experiment [2], the pEC50 was above 6.00.

`Cc1sc2ncnc(SCC(=O)NOC3CCCCO3)c2c1C` (stereo not shown) [2-((5,6-dimethylthieno[2,3-d]pyrimidin-4-yl)thio)-N-((tetrahydro-2H-pyran-2-yl)oxy)acetamide] showed a negative-log IC50 (pIC50) in experiment [1] above 7.60. For the same compound, the pEC50 in experiment [2] is above 6.00.

In experiment [1], “2-(7-cyclopropyl-6-(trifluoromethyl)thieno[3,2-d]pyrimidin-4-yl)thio)acetate” had a pIC50 above 7.60. This compound showed a pEC50 in experiment [2] above 6.00.

With `O=C(O)CSc1ncnc2sc3c(c12)CCC3` [2-((6,7-dihydro-5H-cyclopenta[4,5]thieno[2,3-d]pyrimidin-4-yl)thio)acetic acid], the pIC50 in experiment [1] is above 7.60. In experiment [2], this compound had a pEC50 above 5.30.

In experiment [1], `Cc1cc2c(SCC(=O)O)ncnc2s1` [2-((6-methylthieno[2,3-d]pyrimidin-4-yl)thio)acetic acid] gave a pIC50 above 6.60. This compound also gave a pEC50 in experiment [2] above 5.00.

As to `Cc1sc2ncnc(SCC(=O)NCC#N)c2c1Cl` [2-((5-chloro-6-methylthieno[2,3-d]pyrimidin-4-yl)thio)-N-(cyanomethyl)acetamide], the pIC50 in experiment [1] is above 7.60. Moreover, the pEC50 in experiment [2] was above 6.00.

In the case of `CCc1sc2ncnc(SCC(=O)O)c2c1Br` [2-((5-bromo-6-ethylthieno[2,3-d]pyrimidin-4-yl)thio)acetic acid], the pIC50 in experiment [1] was above 7.60. For the same compound, the negative-log EC50 (pEC50) in experiment [2] was above 6.00.

Consider `Cc1sc2ncnc(SCC(=O)O)c2c1C1CC1` [2-((5-cyclopropyl-6-methylthieno[2,3-d]pyrimidin-4-yl)thio)acetic acid], for which the pIC50 in experiment [1] is above 7.60. Moreover, the negative logarithm of the EC50 (pEC50) in experiment [2] was above 5.30.

The compound `Cc1sc2ncnc(SCC(=O)NCCN3CCOCC3)c2c1Cl` [2-((5-chloro-6-methylthieno[2,3-d]pyrimidin-4-yl)thio)-N-(2-morpholinoethyl)acetamide] had a pIC50 in experiment [1] above 7.60. For the same compound, the pEC50 in experiment [2] was above 6.00.

Turning to `COC(=O)CSc1ncnc2sc(C)c(C)c12` [methyl 2-((5,6-dimethylthieno[2,3-d]pyrimidin-4-yl)thio)acetate], in experiment [1], the pIC50 was above 7.60. Besides, in experiment [2], the pEC50 is above 6.00.

Consider `CCCCOC(=O)CSc1ncnc2sc(C)c(C)c12` [butyl 2-((5,6-dimethylthieno[2,3-d]pyrimidin-4-yl)thio)acetate], for which the pIC50 in experiment [1] is above 7.60. In addition, the pEC50 in experiment [2] is above 6.00.

In turn, `Cc1c(Cl)sc2c(SCC(=O)NCC#N)ncnc12` [2-((6-chloro-7-methylthieno[3,2-d]pyrimidin-4-yl)thio)-N-(cyanomethyl)acetamide] showed a pIC50 in experiment [1] above 7.60. The pEC50 in experiment [2] is above 6.00.

In experiment [1], `CCc1sc2ncnc(SCC(=O)O)c2c1Cl` [2-((5-chloro-6-ethylthieno[2,3-d]pyrimidin-4-yl)thio)acetic acid] showed a pIC50 above 7.60. This compound also showed a pEC50 in experiment [2] above 6.00.

Broadly, the pIC50 is −log10 of the IC50, conventionally taken in molar units. The term pEC50 denotes the EC50 on a negative log10 scale, so that one unit is a factor of ten. High values mean a low EC50, low ones a high EC50.
